The assay deals with Human immunodeficiency virus type 1 protease (Human immunodeficiency virus 1, UniProt Q72874). Briefly: Competitive inhibitory activity against HIV-1 protease.

Structures are written as SMILES.

In general, Ki refers to a dissociation constant, usually derived from enzyme kinetics or from competition with a known ligand. The molecule `COC(=O)C(NC(=O)C(NC(=O)[C@H](C)N1CCC(C(C)N(C)C(C)C(=O)O)=CC(Cc2ccccc2)C1=O)C(C)C)C(C)C` (stereo partly specified) gave a Ki of 147 µM.

These data come from ChEMBL document CHEMBL1128516, “A check on rational drug design: crystal structure of a complex of human immunodeficiency virus type 1 protease with a novel gamma-turn mimetic inhibitor” (J Med Chem, 1995).
